What follows are molecules tested against human LPA1 receptor (Homo sapiens (Human), UniProt Q92633) (assay: Beta-arrestin recruitment assay to determine IC50 values for human LPAR1). Conditions: antagonist mode, Tango EDG2-bla U2OS cells, LPA 18:1 500 nM final.
Format: cell-based
In short: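 Antagonist IC50 = concentration giving 50% inhibition of maximal LPA response. Read-out is beta-lactamase reporter activity after arrestin-protease recruitment in U2OS cells bearing LPA1-TEV-Gal4-VP16 construct; cells pre-incubated 20 h, 37 °C, 5% CO2.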

Sequence of human LPA1 receptor (Q92633 whole entry): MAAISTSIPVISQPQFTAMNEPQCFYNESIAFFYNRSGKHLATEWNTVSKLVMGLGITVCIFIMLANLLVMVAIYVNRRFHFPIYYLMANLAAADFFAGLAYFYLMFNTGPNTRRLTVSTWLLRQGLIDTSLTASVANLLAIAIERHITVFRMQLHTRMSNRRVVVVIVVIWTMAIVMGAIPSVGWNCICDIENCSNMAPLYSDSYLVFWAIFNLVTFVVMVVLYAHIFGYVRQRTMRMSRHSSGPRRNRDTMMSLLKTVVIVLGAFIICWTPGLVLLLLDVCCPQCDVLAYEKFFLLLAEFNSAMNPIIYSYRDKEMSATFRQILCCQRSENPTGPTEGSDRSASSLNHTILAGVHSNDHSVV

Row | Compound | IC50 [nM]
1 | COC(=O)Cn1cc(CN2CC(C(=O)Nc3ccc(C)nc3OC(F)F)(c3ccccc3C(C)C)C2)nn1 [Ex 11-48, methyl 2-(4-((3-((2-(difluoromethoxy)-6-methylpyridin-3-yl)carbamoyl)-3-(2-isopropylphenyl)azetidin-1-yl)methyl)-1H-1,2,3-triazol-1-yl)acetate] | 304
2 | Cc1ccc(NC(=O)C2(c3ccccc3C(C)C)CN(CCNCC(=O)O)C2)c(OC(F)F)n1 [Ex 11-80, (2-(3-((2-(difluoromethoxy)-6-methylpyridin-3-yl)carbamoyl)-3-(2-isopropylphenyl)azetidin-1-yl)ethyl)glycine] | 297
3 | COC(=O)CCCN1CC(C(=O)Nc2ccc(C)nc2OC(F)F)(c2ccccc2C(C)C)C1 [Ex 11-28, methyl 4-(3-((2-(difluoromethoxy)-6-methylpyridin-3-yl)carbamoyl)-3-(2-isopropylphenyl)azetidin-1-yl)butanoate] | 12
4 | Cc1ccc(NC(=O)C2(c3ccccc3C(C)C)CCN(C(=O)NCc3c[nH]cn3)CC2)c(OC(F)F)n1 [Ex 17-3, N1-((1H-imidazol-4-yl)methyl)-N4-(2-(difluoromethoxy)-6-methylpyridin-3-yl)-4-(2-isopropylphenyl)piperidine-1,4-carboxamide] | 8
5 | Cc1ccc(NC(=O)C2(c3ccccc3C(C)C)CN(CC(C)(C)C(=O)O)C2)c(OC(F)F)n1 [Ex 11-25, 3-(3-((2-(difluoromethoxy)-6-methylpyridin-3-yl)carbamoyl)-3-(2-isopropylphenyl)azetidin-1-yl)-2,2-dimethylpropanoic acid] | 20
6 | Cc1ccc(NC(=O)C2(c3ccccc3C(C)C)CN(CC(C)(C)CO)C2)c(OC(F)F)n1 [Ex 11-17, N-(2-(difluoromethoxy)-6-methylpyridin-3-yl)-1-(3-hydroxy-2,2-dimethylpropyl)-3-(2-isopropylphenyl)azetidine-3-carboxamide] | 48
7 | CCOC(=O)CNCCN1CC(C(=O)Nc2ccc(C)nc2OC(F)F)(c2ccccc2C(C)C)C1 [Ex 11-79, Ethyl (2-(3-((2-(difluoromethoxy)-6-methylpyridin-3-yl)carbamoyl)-3-(2-isopropylphenyl)azetidin-1-yl)ethyl)glycinate] | 19
8 | Cc1ccc(NC(=O)C2(c3ccccc3C(C)C)CN(Cc3nc(CC(=O)O)co3)C2)c(OC(F)F)n1 [Ex 11-59, 2-(2-((3-((2-(difluoromethoxy)-6-methylpyridin-3-yl)carbamoyl)-3-(2-isopropylphenyl)azetidin-1-yl)methyl)oxazol-4-yl)acetic acid] | 38
9 | Cc1ccc(NC(=O)C2(c3ccccc3C3CC3)CNC2)c(OC(F)F)n1 [Ex 23, 3-(2-cyclopropylphenyl)-N-(2-(difluoromethoxy)-6-methylpyridin-3-yl)azetidine-3-carboxamide] | 664

Next, values leading:

Row | IC50 [nM] | Compound
10 | 100 | Cc1ccc(NC(=O)C2(c3ccccc3C(C)C)CN(S(=O)(=O)c3cn[nH]c3C(=O)O)C2)c(OC(F)F)n1 [Ex 13-23, 4-((3-((2-(difluoromethoxy)-6-methylpyridin-3-yl)carbamoyl)-3-(2-isopropylphenyl)azetidin-1-yl)sulfonyl)-1H-pyrazole-5-carboxylic acid]
11 | 11 | Cc1ccc(NC(=O)C2(c3ccccc3C(C)C)CN(C(=O)CCC(O)C(F)(F)F)C2)c(OC(F)F)n1 (centres unmarked) [Ex 12-120, N-(2-(difluoromethoxy)-6-methylpyridin-3-yl)-3-(2-isopropylphenyl)-1-(5,5,5-trifluoro-4-hydroxypentanoyl)azetidine-3-carboxamide]
12 | 270 | Cc1ccc(NC(=O)C2(c3ccccc3C(C)C)CN(C(=O)N3CCNCC3)C2)c(OC(F)F)n1 [Ex 17-25, N-(2-(difluoromethoxy)-6-methylpyridin-3-yl)-3-(2-isopropylphenyl)-1-(piperazine-1-carbonyl)azetidine-3-carboxamide]
13 | 3 | CCOC(=O)CC(=O)N1CCC(C(=O)Nc2ccc(C)nc2OC(F)F)(c2ccccc2C(C)C)CC1 [Ex 12-65, ethyl-3-(4-((2-(difluoromethoxy)-6-methylpyridin-3-yl)carbamoyl)-4-(2-isopropylphenyl)piperidin-1-yl)-3-oxopropanoate]
14 | 11 | Cc1ccc(NC(=O)C2(c3ccccc3C(C)C)CN(S(=O)(=O)NCCO)C2)c(OC(F)F)n1 [Ex 15-3, N-(2-(difluoromethoxy)-6-methylpyridin-3-yl)-1-(N-(2-hydroxyethyl)sulfamoyl)-3-(2-isopropylphenyl)azetidine-3-carboxamide]
15 | 2680 | Cc1ccc(NC(=O)C2(c3ccccc3C(C)C)CN(C(=O)C3(C(=O)O)CNC3)C2)c(OC(F)F)n1 [Ex 12-114, 3-(3-((2-(difluoromethoxy)-6-methylpyridin-3-yl)carbamoyl)-3-(2-isopropylphenyl)azetidine-1-carbonyl)azetidine-3-carboxylic acid]
16 | 4 | COc1ccc(NC(=O)C2(c3ccccc3C(C)C)CN(S(N)(=O)=O)C2)c(OC)n1 [Ex 15-7, N-(2,6-dimethoxypyridin-3-yl)-3-(2-isopropylphenyl)-1-sulfamoylazetidine-3-carboxamide]
17 | 3 | Cc1ccc(NC(=O)C2(c3ccccc3C(C)C)CN(c3ccnc(C)n3)C2)c(OC(F)F)n1 [Ex 18-34, N-(2-(difluoromethoxy)-6-methylpyridin-3-yl)-3-(2-isopropylphenyl)-1-(2-methylpyrimidin-4-yl)azetidine-3-carboxamide]
18 | 16 | COC(=O)c1ccc(N2CC(C(=O)Nc3ccc(C)nc3OC(F)F)(c3ccccc3C(C)C)C2)nc1 [Ex 18-1, Methyl 6-(3-((2-(difluoromethoxy)-6-methylpyridin-3-yl)carbamoyl)-3-(2-isopropylphenyl)azetidin-1-yl)nicotinate]
19 | 7 | Cc1ccc(NC(=O)C2(c3ccccc3C(C)C)CN(C(=O)C[C@](C)(O)C(=O)O)C2)c(OC(F)F)n1 [Ex 12-117, (S)-4-(3-((2-(difluoromethoxy)-6-methylpyridin-3-yl)carbamoyl)-3-(2-isopropylphenyl)azetidin-1-yl)-2-hydroxy-2-methyl-4-oxobutanoic acid]
20 | 17 | CC(C)c1ccccc1C1(C(=O)Nc2ncc(Cl)cc2OC(F)F)CN(C(=O)CC(C)(C)C(=O)O)C1 [Ex 79-3, 4-(3-((5-chloro-3-(difluoromethoxy)pyridin-2-yl)carbamoyl)-3-(2-isopropylphenyl)azetidin-1-yl)-2,2-dimethyl-4-oxobutanoic acid]
21 | 3 | Cc1ccc(NC(=O)C2(c3ccccc3C(C)C)CN(C(=O)CNC[C@@H](C)O)C2)c(OC(F)F)n1 [Ex 12-55, (R)-N-(2-(difluoromethoxy)-6-methylpyridin-3-yl)-1-((R)-(2-hydroxypropyl)glycyl)-3-(2-isopropylphenyl)azetidine-3-carboxamide]
22 | 10 | COCCNCC(=O)N1CC(C(=O)Nc2ccc(C)nc2OC(F)F)(c2ccccc2C(C)C)C1 [Ex 12-54, N-(2-(difluoromethoxy)-6-methylpyridin-3-yl)-3-(2-isopropylphenyl)-1-((2-methoxyethyl)glycyl)azetidine-3-carboxamide]
23 | 41 | Cc1ccc(NC(=O)C2(c3ccccc3C(C)C)CN(C(=O)CC3(C(=O)O)CCOC3)C2)c(OC(F)F)n1 (centres unmarked) [Ex 12-123, 3-(2-(3-((2-(difluoromethoxy)-6-methylpyridin-3-yl)carbamoyl)-3-(2-isopropylphenyl)azetidin-1-yl)-2-oxoethyl)tetrahydrofuran-3-carboxylic acid]

Source: patent publication US12344597B2, “Alkoxy-substituted pyridinyl derivatives as LPA1 receptor antagonists and their use in the treatment of fibrosis” (IDORSIA PHARMACEUTICALS LTD, priority 2018, dated 2025)
